Assays:
3-epimerase [1] = assay: Specificity of 3-epimerase for substrate; type: biochemical, Thermogemmatispora carboxidivorans; settings: for 3-epimerase activity for substrate: 10 mM monosaccharide; for Relative activity (%): 0.04 U/ml 3-epimerase, 10 mM monosaccharide as substrate, pH 7.5, 60° C., 20 minutes
Protocol: (§1) In the current experimental examples, the enzyme activity is measured using fructose and sorbose as substrates. In order to measure the enzyme activity, 3-epimerase is mixed with 50 mM sodium phosphate buffer solution (pH 7.5) containing 10% fructose or sorbose, reacted at 60° C. for 20 minutes, and then heated at 100° C. for 15 minutes to terminate the reaction. The sodium phosphate buffer solution containing fructose or sorbose is prepared by dissolving fructose or sorbose in a sodium phosphate buffer solution pH 7-8 to give a concentration of 60-70% (w/v). The sodium phosphate buffer solution containing fructose or sorbose is continuously added to a bioreactor maintained at 60° C. For the purpose of facilitating the comparison of enzyme activities, one unit of allulose-3-epimerase is defined as an amount of allulose-3-epimerase required to produce […] of D-allulose per minute at pH 7.5 and 60° C.; and one unit of tagatose-3-epimerase is defined as an amount of tagatose-3-epimerase required to produce […] of D-tagatose per minute at pH 7.5 and 60° C. The concentrations of fructose, D-allulose, sorbose, and D-tagatose are determined by high performance liquid chromatography with a BP-100 calcium ion […] column and an RI detector. The column temperature is 80° C., and the mobile phase is ultrapure water with a flow rate of 0.5 mL/min.
The reaction catalyzed by 3-epimerase was carried out in a 50 mM sodium phosphate buffer solution pH 7.5 at 60° C. for 20 minutes, where the sodium phosphate buffer solution contained 0.04 U/ml 3-epimerase and 10 mM of various individual monosaccharides shown in Table 2 below. Each reaction solution was heated at 100° C. for 15 minutes to terminate the reaction, and then the enzyme activity of the 3-epimerase in each reaction solution was measured.

3-epimerase [2] = assay: Metal dependence of 3-epimerase; type: biochemical, Thermogemmatispora carboxidivorans; settings: 1 mM metal ion; for Relative activity (%): EDTA-treated 3-epimerase 0.04 U/mL, 10% (w/v) fructose, Tris pH 7.5, 60° C., 20 minutes, None = 100; for effect of metal ion on enzyme activity: fructose as substrate
Protocol: as §1, with “In order to measure the enzyme activity, 3-epimerase is mixed with 50 mM sodium phosphate buffer solution (pH 7.5) containing 10% fructose or sorbose, reacted at 60° C. for 20 minutes, and then heated at 100° C. for 15 minutes to terminate the reaction.” left out, “mL/min. In Example 3, in order to investigate the effect of metal ions on the 3-epimerase, the effect on the activity of 3-epimerase was measured with fructose as a substrate in the presence of various metal ions. The measurement was carried out by treating 3-epimerase with EDTA, and then adding 1 mM of various metal ions shown in Table 1 below to the 3-epimerase solution. The reaction catalyzed by 3-epimerase was carried out in a 50 mM Tris buffer pH 7.5 at 60° C. for 20 minutes, where the Tris buffer contained 0.04 U/mL 3-epimerase and 10% (w/v) fructose. The reaction solution was further heated at 100° C. for 15 minutes to terminate the reaction, and then the activity of the 3-epimerase was measured.” for “mL/min.”

[3] = in humans; cited from earlier work

Structure (SMILES): O=C(CO)[C@H](O)[C@@H](O)[C@H](O)CO [Sorbose, D-sorbose]
- 3-epimerase activity for substrate (3-epimerase [1]): active
- Relative activity (%) (3-epimerase [1]): 21%

Structure (SMILES): [K+] [K^+]
- Relative activity (%) (3-epimerase [2]): 113%

Structure (SMILES): [Ca+2] [Ca^2+]
- Relative activity (%) (3-epimerase [2]): 65%

Structure (SMILES): [Mg+2] [Mg^2+]
- effect of metal ion on enzyme activity (3-epimerase [2]): enhance the enzyme activity
- Relative activity (%) (3-epimerase [2]): 130%

Structure (SMILES): [Cu+2] [Cu^2+]
- effect of metal ion on enzyme activity (3-epimerase [2]): inhibit the enzyme activity
- Relative activity (%) (3-epimerase [2]): 0%

Structure (SMILES): [Co+2] [Co^2+]
- effect of metal ion on enzyme activity (3-epimerase [2]): enhance the enzyme activity
- Relative activity (%) (3-epimerase [2]): 170%

Structure (SMILES): O=C(CO)[C@@H](O)[C@H](O)[C@H](O)CO [Fructose, D-fructose]
- 3-epimerase activity for substrate (3-epimerase [1]): active
- Relative activity (%) (3-epimerase [1]): 63.9%

Structure (SMILES): O=C(CO)[C@H](O)[C@H](O)[C@H](O)CO [D-allulose, D-ribo-2-hexulose]
- 3-epimerase activity for substrate (3-epimerase [1]): active
- Relative activity (%) (3-epimerase [1]): 100%

Structure (SMILES): [Na+] [Na^+]
- Relative activity (%) (3-epimerase [2]): 120%

Structure (SMILES): [Zn+2] [Zn^2+]
- effect of metal ion on enzyme activity (3-epimerase [2]): inhibit the enzyme activity
- Relative activity (%) (3-epimerase [2]): 0%

Structure (SMILES): [Mn+2] [Mn^2+]
- effect of metal ion on enzyme activity (3-epimerase [2]): enhance the enzyme activity
- Relative activity (%) (3-epimerase [2]): 168%

Structure (SMILES): O=C(CO)[C@@H](O)[C@@H](O)[C@H](O)CO [D-tagatose]
- absorption rate [3]: 20 to 25%
- 3-epimerase activity for substrate (3-epimerase [1]): active
- Relative activity (%) (3-epimerase [1]): 40.7%
